According to paper PMC9505538, “P-Glycoprotein (MDR1/ABCB1) Restricts Brain Accumulation of the Novel EGFR Inhibitor EAI045 and Oral Elacridar Coadministration Enhances Its Brain Accumulation and Oral Exposure” (Pharmaceuticals, 2022):

Experiments:
murine Abcg2 = target: T1, murine Abcg2 (Mus musculus, UniProt Q7TMS5); test: Transepithelial transport of EAI045, MDCK-II cells transduced with murine Abcg2; format: in vitro ADME; details: for efflux ratio r (relative transport ratio): EAI045 5 μM
T1 construct: expressed in transfected cells; host or cells: MDCK-II cells, stably transduced, generated in the authors' institute
T1 sequence (Q7TMS5 1-657): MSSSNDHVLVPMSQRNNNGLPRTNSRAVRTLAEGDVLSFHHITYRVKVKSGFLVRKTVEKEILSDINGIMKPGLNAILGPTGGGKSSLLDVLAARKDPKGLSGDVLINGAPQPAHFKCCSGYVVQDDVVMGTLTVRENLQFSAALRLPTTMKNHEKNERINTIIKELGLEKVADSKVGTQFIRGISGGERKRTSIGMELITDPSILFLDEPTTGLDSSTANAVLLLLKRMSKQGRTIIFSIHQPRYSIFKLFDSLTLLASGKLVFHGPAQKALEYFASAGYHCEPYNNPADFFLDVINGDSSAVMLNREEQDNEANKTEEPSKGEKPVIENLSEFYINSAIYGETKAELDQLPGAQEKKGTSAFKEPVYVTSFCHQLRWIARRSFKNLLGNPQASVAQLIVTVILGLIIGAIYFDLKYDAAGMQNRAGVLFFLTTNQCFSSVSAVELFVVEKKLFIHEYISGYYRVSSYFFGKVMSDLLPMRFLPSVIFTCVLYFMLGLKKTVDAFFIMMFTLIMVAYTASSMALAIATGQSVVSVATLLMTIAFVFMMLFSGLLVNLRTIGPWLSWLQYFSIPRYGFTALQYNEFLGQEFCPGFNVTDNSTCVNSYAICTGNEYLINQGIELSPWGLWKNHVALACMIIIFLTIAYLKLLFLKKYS
Protocol: (§1) Transport of EAI045 (5 μM) across epithelia was tested using cell layers of Madin–Darby Canine Kidney (MDCK-II) cells and derived clones expressing hABCB1, hABCG2, or mAbcg2 cDNA. […] In cells overexpressing hABCB1, there was clear transport of EAI045 in the apical direction (r = 5.5, Figure 1C). […] To evaluate the interaction between hABCG2 and mAbcg2 and EAI045, zosuquidar (5 μM) was added to inhibit any endogenous canine ABCB1. In cells overexpressing hABCG2, the BA transport of EAI045 was somewhat increased relative to the AB transport, resulting in an efflux ratio of 1.4 (Figure 1E).
(§2) Figure 1 In vitro transepithelial transport of EAI045 (5 μM) using MCDK-II parental cells (A,B) or transduced with human ABCB1 (C,D), human ABCG2 (E,F), or murine Abcg2 (G,H) cDNA. At t = 0 EAI045 was added in the donor compartment (either apical or basolateral). At 1, 2, and 4 h EAI045 was quantified in the acceptor compartment and the cumulative total transported amount per well was plotted (n = 3). Zosuquidar (5 μM) was added to inhibit the human and/or the endogenous ABCB1, while Ko143 (5 μM) was added to inhibit the human or murine ABCG2. r, relative transport ratio. […] Points, mean; bars, SD. TEXT PRINTED IN THE PICTURE: (A) no label printed: Parental: r = 1.7 | (B) no label printed: Parental + Zos.: r = 1.1 | (C) no label printed: hABCB1: r = 5.5 | (D) no label printed: hABCB1 + Zos.: r = 1.3 | (E) no label printed: hABCG2 + Zos.: r = 1.4 | (F) no label printed: hABCG2 + Zos. + Ko143: r = 1.1 | (G) no label printed: mAbcg2 + Zos.: r = 1.8 | (H) no label printed: mAbcg2 + Zos. + Ko143: r = 1.4
(§3) Madin–Darby Canine Kidney (MDCK-II) cells (ECACC 00062107) stably transduced with human (h) ABCB1, hABCG2, or mouse (m) Abcg2 cDNA were generated in our institute between 1998 and 2005. […] In short, cells were allowed to grow an intact monolayer in 3 days, which was monitored with transepithelial electrical resistance (TEER) measurements, both before and after the transport phase. […] Proper functionality of these cell lines was monitored by continual testing with a variety of drug substrates.

[1] = 24 h pharmacokinetic pilot experiment in WT, Cyp3a-/- and Cyp3aXAV mice; format: in vivo, mice (Mus musculus)
Protocol: To determine whether EAI045 and CYP3A interact in vivo, we carried out a 24 h pharmacokinetic pilot experiment using oral EAI045 at 20 mg/kg in female WT, Cyp3a knockout (Cyp3a^-/-), and transgenic Cyp3aXAV mice (these are humanized Cyp3a^-/- mice that express the human CYP3A4 in liver and small intestine). The plasma exposure and tissue distribution of EAI045 and PIA were measured. The tmax in all strains was around 5–30 min. […] In contrast, relative to Cyp3a^-/- or WT mice, the AUC0–30min and Cmax were not changed in Cyp3aXAV mice (Supplemental Figure S8A–C). Similar results were obtained for PIA (Supplemental Figure S8D–F). While not plotted separately, the PIA/EAI045 AUC ratios were also hardly changed between the three mouse strains.
All samples were stored at −30 °C until analysis.
Differences were considered statistically significant when p < 0.05. Data are presented as mean ± SD.

human ABCB1 = target: T2, human ABCB1 (Homo sapiens, UniProt P08183); test: Transepithelial transport of EAI045, MDCK-II cells transduced with human ABCB1; format: in vitro ADME; details: for efflux ratio r (relative transport ratio): EAI045 5 μM
T2 construct: expressed in transfected cells; host or cells: MDCK-II cells, stably transduced, generated in the authors' institute
Protocol: as §1, §2, §3

T2 sequence (P08183 whole entry): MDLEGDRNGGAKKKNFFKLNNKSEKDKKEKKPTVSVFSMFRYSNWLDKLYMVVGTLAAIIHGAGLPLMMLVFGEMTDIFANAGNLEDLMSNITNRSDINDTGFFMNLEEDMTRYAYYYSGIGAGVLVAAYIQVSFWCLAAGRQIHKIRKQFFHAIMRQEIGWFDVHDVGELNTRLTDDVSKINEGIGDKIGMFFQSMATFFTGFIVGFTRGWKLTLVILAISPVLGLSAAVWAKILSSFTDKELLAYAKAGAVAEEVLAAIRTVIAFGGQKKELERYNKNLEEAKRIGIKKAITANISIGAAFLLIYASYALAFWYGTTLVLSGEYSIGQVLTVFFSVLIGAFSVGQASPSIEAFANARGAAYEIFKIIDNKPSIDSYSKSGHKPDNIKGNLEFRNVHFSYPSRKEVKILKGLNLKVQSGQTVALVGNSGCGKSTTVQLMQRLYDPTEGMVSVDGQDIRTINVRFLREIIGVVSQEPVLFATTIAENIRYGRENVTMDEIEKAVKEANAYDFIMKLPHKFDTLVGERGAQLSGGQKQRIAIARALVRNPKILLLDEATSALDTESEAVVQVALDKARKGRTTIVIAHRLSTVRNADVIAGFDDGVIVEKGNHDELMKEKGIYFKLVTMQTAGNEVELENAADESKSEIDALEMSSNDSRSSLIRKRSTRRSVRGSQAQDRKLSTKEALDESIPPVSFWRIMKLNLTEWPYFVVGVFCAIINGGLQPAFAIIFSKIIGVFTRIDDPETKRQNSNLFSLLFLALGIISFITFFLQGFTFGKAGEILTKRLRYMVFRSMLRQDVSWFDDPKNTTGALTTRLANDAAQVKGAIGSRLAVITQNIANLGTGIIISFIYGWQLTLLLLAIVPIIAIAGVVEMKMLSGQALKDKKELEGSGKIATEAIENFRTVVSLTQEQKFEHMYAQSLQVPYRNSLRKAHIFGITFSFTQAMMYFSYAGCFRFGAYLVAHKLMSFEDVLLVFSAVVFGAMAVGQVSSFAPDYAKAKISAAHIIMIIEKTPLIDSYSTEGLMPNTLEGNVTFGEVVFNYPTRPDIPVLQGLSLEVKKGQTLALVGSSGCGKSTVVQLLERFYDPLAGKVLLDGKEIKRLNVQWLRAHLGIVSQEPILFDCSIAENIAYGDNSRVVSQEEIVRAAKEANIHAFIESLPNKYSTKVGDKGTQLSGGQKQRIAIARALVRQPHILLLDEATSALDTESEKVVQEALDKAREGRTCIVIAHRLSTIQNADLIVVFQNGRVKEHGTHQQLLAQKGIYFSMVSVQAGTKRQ

SMILES: O=C(Nc1nccs1)C(c1cc(F)ccc1O)N1Cc2ccccc2C1=O (stereo not drawn) [EAI045]
- efflux ratio r (relative transport ratio) (murine Abcg2; mAbcg2 + zosuquidar 5 μM): 1.8
- efflux ratio r (relative transport ratio) (murine Abcg2; mAbcg2 + zosuquidar 5 μM + Ko143 5 μM): 1.4
- transport by mouse Abcg2 (murine Abcg2; in vitro): at best slightly transported
- plasma exposure of EAI045 over 30 min (AUC0–30min), fold lower ([1]; Cyp3a-/- mice than WT mice, 20 mg/kg oral): 1.6 fold
- AUC0–30min and Cmax ([1]; Cyp3aXAV mice relative to Cyp3a-/- or WT mice, 20 mg/kg oral): not changed
- tmax ([1]; female WT, Cyp3a-/- and Cyp3aXAV mice (all strains), EAI045 20 mg/kg oral): 5 to 30 min
- efflux ratio r (relative transport ratio) (human ABCB1; hABCB1 + zosuquidar 5 μM): 1.3
- efflux ratio r (relative transport ratio) (human ABCB1; hABCB1, no inhibitor): 5.5
- transport substrate of hABCB1 (human ABCB1; in vitro): good transport substrate
